Measurements taken from US12485122B2, “Combination of palbociclib and adagrasib for lung cancer” (Mirati Therapeutics, Inc., priority 2018, dated 2025).

What was measured:
Assay type in all cases: in vivo, nude/nude mice
[1] = test system: SW1573 cells; assay: SW1573 tumor bearing mice, single agents and combination; conditions: for tumor growth inhibition: Day 28, single agent, Compound 478 100 mg/kg or palbociclib 130 mg/kg p.o. daily; for Average Tumor Volume: Compound 478 100 mg/kg, palbociclib 130 mg/kg, 7 mice averaged
Method: (§1) Immunocompromised nude/nude mice were inoculated in the right hind flank with cells or patient derived tumor samples harboring a KRas G12C mutation. When tumor volumes reached between 200-400 mm^3 in size, the mice were divided into four groups of 5-12 mice each. The first group was administered vehicle only. […] The fourth group was administered the single agent dose of the KRas G12C inhibitor in combination with the single agent dose of the CDK 4/6 inhibitor. […] Tumor volumes were measured using a caliper every two-three days and tumor volumes are calculated by the formula: […].
For example, 28 nude/nude mice were inoculated in the right hind limb with 5×10^6 SW1573 cells.

[2] = test system: H2122 cells; assay: H2122 tumor bearing mice, single agents and combination; conditions: for tumor growth inhibition: Day 23, single agent, Compound 478 100 mg/kg or palbociclib 130 mg/kg p.o. daily; for Average Tumor Volume: Compound 478 100 mg/kg, palbociclib 130 mg/kg, 5 mice averaged
Method: as §1
Similarly, 20 nude/nude mice were inoculated in the right hind limb with 5×10^6 H2122 cells.

[3] = test system: LU6405 cells; assay: LU6405 tumor bearing mice, single agents and combination; conditions: for Average Tumor Volume: Compound 478 100 mg/kg, palbociclib 130 mg/kg, 5 mice averaged
Method: as §1
In another experiment, on Day 0, 20 nude/nude mice were inoculated in the right hind limb with 5×10^6 LU6405 cells.

[4] = Study Day 23, p.o. daily for 21 days
[5] = Study Day 22, p.o. daily for 21 days
[6] = Study Day 24, p.o. daily for 21 days

Structure (SMILES)	tumor growth inhibition [1] [%]	Average Tumor Volume ([1]; Study Day 0, p.o. daily) [mm^3]	Average Tumor Volume ([1]; Study Day 6, p.o. daily) [mm^3]	Average Tumor Volume ([1]; Study Day 9, p.o. daily) [mm^3]	Average Tumor Volume ([1]; Study Day 14, p.o. daily) [mm^3]	Average Tumor Volume ([1]; Study Day 16, p.o. daily) [mm^3]	Average Tumor Volume ([1]; Study Day 18, p.o. daily) [mm^3]	Average Tumor Volume ([1]; Study Day 21, p.o. daily) [mm^3]	Average Tumor Volume ([1]; Study Day 23, p.o. daily) [mm^3]	Average Tumor Volume ([1]; Study Day 25, p.o. daily) [mm^3]	Average Tumor Volume ([1]; Study Day 28, p.o. daily) [mm^3]	tumor growth inhibition [2] [%]	Average Tumor Volume ([2]; Study Day 0, p.o. daily) [mm^3]	Average Tumor Volume ([2]; Study Day 2, p.o. daily) [mm^3]	Average Tumor Volume ([2]; Study Day 4, p.o. daily) [mm^3]	Average Tumor Volume ([2]; Study Day 7, p.o. daily) [mm^3]	Average Tumor Volume ([2]; Study Day 9, p.o. daily) [mm^3]	Average Tumor Volume ([2]; Study Day 11, p.o. daily) [mm^3]	Average Tumor Volume ([2]; Study Day 14, p.o. daily) [mm^3]	Average Tumor Volume ([2]; Study Day 16, p.o. daily) [mm^3]	other results
C=C(F)C(=O)N1CCN(c2nc(OC[C@@H]3CCCN3C)nc3c2CCN(c2cccc4cccc(Cl)c24)C3)C[C@@H]1CC#N [Compound 478]	71	357	404	435	523	575	607	754	758	741	785	85	325	340	338	381	462	480	493	541	Average Tumor Volume ([2]; Study Day 18, p.o. daily): 537 mm^3; Average Tumor Volume ([2]; Study Day 21, p.o. daily): 547 mm^3; Average Tumor Volume [2, 4]: 547 mm^3; tumor growth inhibition ([3]; Day 24, single agent, Compound 478 100 mg/kg p.o. daily): 96%; Average Tumor Volume ([3]; Study Day 1, p.o. daily): 256.06 mm^3; Average Tumor Volume ([3]; Study Day 4, p.o. daily): 308.98 mm^3; Average Tumor Volume ([3]; Study Day 8, p.o. daily): 324.46 mm^3; Average Tumor Volume ([3]; Study Day 11, p.o. daily): 329.09 mm^3; Average Tumor Volume ([3]; Study Day 15, p.o. daily): 310.21 mm^3; Average Tumor Volume ([3]; Study Day 18, p.o. daily): 290.88 mm^3; Average Tumor Volume [3, 5]: 257.34 mm^3; Average Tumor Volume [3, 6]: 249.19 mm^3
CC(=O)c1c(C)c2cnc(Nc3ccc(N4CCNCC4)cn3)nc2n(C2CCCC2)c1=O [Palbociclib, 6-acetyl-8-cyclopentyl-5-methyl-2-((5-(piperazin-1-yl)pyridin-2-yl)amino)pyrido[2,3-d]pyrimidin-7(8H)-one]	40	356	484	508	748	807	706	926	1029	1167	1240	65	326	385	493	601	646	663	748	765	Average Tumor Volume ([1]; Study Day 3, p.o. daily): 444 mm^3; Average Tumor Volume ([1]; Study Day 11, p.o. daily): 515 mm^3; Average Tumor Volume ([2]; Study Day 18, p.o. daily): 790 mm^3; Average Tumor Volume ([2]; Study Day 21, p.o. daily): 836 mm^3; Average Tumor Volume [2, 4]: 834 mm^3; Average Tumor Volume ([3]; Study Day 1, p.o. daily): 255.36 mm^3; Average Tumor Volume ([3]; Study Day 4, p.o. daily): 440.79 mm^3; Average Tumor Volume ([3]; Study Day 8, p.o. daily): 659.01 mm^3; Average Tumor Volume ([3]; Study Day 11, p.o. daily): 834.95 mm^3; Average Tumor Volume ([3]; Study Day 15, p.o. daily): 1165.80 mm^3; Average Tumor Volume ([3]; Study Day 18, p.o. daily): 1295.57 mm^3; Average Tumor Volume [3, 5]: 1363.40 mm^3; Average Tumor Volume [3, 6]: 1382.59 mm^3
